Assay results published in patent US11510896B2, “Antiviral compositions for the treatment of infections linked to coronaviruses” (priority 2016, dated 2022).

Assays:
[1] = test system: MERS-CoV strain France-UAE/1612/2013; test: microbe, parasite or virus in culture; format: cell-based, MERS-CoV coronavirus; conditions: for IC50: Middle East respiratory syndrome-related coronavirus, Vero C1008, 24 h, read-out: IC50 (dose necessary to obtain a 50% viral production inhibition)
[2] = test system: horses; conditions: horses versus ruminants; cited from earlier work

Compound: COc1ccc2cc3[n+](cc2c1OC)CCc1cc2c(cc1-3)OCO2 [berberine, Berberine]
- reduction of the infectious titres with respect to the control ([1]; 12.5 μM): 78.4%
- IC50 [1]: 3.8 µM

Compound: CC[C@@]1([C@@H]2O[C@@H]([C@H]3O[C@@](O)(CO)[C@H](C)C[C@@H]3C)C[C@@H]2C)CC[C@H]([C@]2(C)CC[C@]3(C[C@H](O)[C@@H](C)[C@@H]([C@@H](C)[C@@H](OC)[C@H](C)C(=O)O)O3)O2)O1 [monensin, Monensin]
- reduction of the infectious titres with respect to the control ([1]; 6 μM): 97.8%
- IC50 [1]: 1.25 µM
- LD50 in horses, times less than in ruminants [2]: 100 times
